pIC50: −log10 of the molar value.
Experiments:
[1] = target: α7 nAChR (Rattus norvegicus, UniProt Q05941); format: cell-based
[2] = target: α9α10 nAChRs (Rattus norvegicus, UniProt P43144+Q9JLB5); format: cell-based; settings: for inhibition of α9α10 ACh-gated currents at the probe concentration: 100 nM probe concentration, result in words; for selectivity for the α9α10 subtype vs. the α7 subtype: ratio of α7 to α9α10 IC50
[3] = target: T1, 5HT3 receptors (Homo sapiens, UniProt P46098); test: Affinity for 5HT3 receptors; format: binding; settings: unpublished data
T1 sequence (P46098 24-478): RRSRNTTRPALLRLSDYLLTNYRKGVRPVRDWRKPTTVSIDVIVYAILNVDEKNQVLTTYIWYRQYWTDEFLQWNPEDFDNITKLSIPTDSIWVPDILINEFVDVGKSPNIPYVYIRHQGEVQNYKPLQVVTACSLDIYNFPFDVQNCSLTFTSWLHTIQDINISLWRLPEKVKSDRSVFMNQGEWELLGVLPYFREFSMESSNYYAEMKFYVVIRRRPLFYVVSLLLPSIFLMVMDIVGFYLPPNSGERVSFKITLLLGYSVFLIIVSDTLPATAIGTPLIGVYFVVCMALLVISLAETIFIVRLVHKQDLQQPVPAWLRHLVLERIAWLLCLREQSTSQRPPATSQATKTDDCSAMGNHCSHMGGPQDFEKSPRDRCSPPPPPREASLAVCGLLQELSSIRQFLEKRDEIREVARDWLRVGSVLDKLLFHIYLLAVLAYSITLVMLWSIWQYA

[4] = phase 2; cited from earlier work
[5] = rat; cited from earlier work
[6] = cited from earlier work; for tolerance to the antihyperalgesic effect: rat, repeated dosing (7 days)
[7] = target: GABAB receptors (Homo sapiens, UniProt O75899+Q9UBS5); test: Interaction with GABAB receptors; settings: unpublished data
[8] = cited from earlier work
[9] = target: κ-opioid receptors (Homo sapiens, UniProt P41145); test: Affinity for κ-opioid receptors; format: binding; settings: unpublished data
[10] = tested on: GABAA receptors; test: Interaction with GABAA receptors; settings: unpublished data
[11] = rat CCI pain model as printed; cited from earlier work

α7 nAChR, sequence (Q05941 23-502): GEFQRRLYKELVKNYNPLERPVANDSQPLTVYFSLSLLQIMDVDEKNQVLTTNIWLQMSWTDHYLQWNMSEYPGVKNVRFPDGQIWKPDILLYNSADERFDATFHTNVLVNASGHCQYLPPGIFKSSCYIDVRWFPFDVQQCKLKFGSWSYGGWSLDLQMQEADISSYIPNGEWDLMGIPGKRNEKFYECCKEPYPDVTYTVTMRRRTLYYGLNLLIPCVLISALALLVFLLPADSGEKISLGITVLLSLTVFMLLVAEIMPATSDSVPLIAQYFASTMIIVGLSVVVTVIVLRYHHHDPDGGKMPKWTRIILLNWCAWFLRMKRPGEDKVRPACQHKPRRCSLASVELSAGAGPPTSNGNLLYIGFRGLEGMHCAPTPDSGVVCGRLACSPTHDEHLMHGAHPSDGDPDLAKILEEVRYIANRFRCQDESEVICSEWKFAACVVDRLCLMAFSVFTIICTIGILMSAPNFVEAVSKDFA
α9α10 nAChRs, sequence (P43144 26-479): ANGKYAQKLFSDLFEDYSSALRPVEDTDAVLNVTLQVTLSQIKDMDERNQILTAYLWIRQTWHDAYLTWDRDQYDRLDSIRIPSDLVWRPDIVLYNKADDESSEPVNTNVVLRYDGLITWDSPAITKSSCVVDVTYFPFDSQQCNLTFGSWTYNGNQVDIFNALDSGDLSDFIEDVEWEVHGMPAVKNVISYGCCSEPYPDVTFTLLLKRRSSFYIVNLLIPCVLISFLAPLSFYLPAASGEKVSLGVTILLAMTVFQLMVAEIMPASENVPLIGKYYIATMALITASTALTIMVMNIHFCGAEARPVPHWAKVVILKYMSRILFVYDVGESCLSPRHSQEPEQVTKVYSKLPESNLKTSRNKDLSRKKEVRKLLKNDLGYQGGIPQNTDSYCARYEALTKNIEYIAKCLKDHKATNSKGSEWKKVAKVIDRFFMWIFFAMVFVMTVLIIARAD
α9α10 nAChRs, sequence (Q9JLB5 25-447): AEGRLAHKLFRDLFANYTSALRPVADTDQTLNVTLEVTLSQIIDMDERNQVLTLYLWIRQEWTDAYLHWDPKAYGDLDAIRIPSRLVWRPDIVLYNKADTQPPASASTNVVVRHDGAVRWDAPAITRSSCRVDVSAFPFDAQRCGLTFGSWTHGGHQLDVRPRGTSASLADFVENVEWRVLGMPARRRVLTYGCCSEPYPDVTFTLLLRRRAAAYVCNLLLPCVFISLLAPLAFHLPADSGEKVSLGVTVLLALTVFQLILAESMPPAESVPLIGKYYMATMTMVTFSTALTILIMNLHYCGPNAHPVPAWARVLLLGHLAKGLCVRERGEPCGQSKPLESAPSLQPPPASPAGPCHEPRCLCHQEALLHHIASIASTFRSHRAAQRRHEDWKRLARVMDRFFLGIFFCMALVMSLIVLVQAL
GABAB receptors, sequence (Q9UBS5 15-961 limits assumed): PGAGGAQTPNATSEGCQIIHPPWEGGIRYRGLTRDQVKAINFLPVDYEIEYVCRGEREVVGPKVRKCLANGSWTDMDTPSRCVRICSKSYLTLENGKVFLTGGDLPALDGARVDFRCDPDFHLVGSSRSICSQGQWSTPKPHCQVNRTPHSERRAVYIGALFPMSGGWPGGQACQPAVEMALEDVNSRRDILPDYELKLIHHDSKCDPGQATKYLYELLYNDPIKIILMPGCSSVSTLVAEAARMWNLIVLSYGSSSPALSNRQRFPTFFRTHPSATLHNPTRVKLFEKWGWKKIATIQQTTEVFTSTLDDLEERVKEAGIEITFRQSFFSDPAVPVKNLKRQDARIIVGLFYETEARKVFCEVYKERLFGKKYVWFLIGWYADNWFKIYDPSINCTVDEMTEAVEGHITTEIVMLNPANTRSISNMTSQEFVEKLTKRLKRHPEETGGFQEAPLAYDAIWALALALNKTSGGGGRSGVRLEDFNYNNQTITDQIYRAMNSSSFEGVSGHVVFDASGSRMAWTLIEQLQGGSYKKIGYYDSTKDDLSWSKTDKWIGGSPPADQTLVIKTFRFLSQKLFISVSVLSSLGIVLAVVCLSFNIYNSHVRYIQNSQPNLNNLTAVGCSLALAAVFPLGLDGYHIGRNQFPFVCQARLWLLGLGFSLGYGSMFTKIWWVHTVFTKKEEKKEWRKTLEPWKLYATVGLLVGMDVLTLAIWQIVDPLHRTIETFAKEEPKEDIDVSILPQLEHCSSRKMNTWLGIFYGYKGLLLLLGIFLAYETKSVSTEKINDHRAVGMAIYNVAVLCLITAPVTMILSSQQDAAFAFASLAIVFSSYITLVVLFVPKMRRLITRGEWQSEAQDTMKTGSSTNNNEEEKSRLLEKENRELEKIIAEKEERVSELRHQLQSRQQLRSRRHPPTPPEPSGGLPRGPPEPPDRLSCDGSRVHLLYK
GABAB receptors, sequence (O75899 42-941): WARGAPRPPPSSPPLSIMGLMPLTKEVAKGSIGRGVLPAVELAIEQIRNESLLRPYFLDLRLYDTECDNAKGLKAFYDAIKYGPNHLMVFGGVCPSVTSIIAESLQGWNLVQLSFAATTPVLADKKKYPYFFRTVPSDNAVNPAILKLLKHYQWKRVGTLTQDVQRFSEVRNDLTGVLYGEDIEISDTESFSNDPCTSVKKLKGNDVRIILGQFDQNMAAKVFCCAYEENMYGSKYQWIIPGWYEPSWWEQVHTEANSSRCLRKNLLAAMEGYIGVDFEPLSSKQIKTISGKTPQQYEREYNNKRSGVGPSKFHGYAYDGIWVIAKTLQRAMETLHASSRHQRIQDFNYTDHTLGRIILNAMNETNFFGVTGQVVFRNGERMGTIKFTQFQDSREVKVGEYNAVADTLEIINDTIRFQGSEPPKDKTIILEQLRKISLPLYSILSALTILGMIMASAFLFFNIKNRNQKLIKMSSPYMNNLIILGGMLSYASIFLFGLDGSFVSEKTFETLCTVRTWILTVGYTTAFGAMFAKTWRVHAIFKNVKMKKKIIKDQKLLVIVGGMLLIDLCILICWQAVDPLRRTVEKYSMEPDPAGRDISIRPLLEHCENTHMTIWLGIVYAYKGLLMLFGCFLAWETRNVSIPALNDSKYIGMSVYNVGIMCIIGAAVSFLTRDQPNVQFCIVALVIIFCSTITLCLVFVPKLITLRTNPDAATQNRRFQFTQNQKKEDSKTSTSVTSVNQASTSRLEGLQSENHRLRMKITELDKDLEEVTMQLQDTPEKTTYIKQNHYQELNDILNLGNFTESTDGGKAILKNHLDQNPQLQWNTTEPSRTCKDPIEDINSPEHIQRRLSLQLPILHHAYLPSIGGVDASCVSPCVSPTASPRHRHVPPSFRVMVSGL
κ-opioid receptors, sequence (P41145 whole entry): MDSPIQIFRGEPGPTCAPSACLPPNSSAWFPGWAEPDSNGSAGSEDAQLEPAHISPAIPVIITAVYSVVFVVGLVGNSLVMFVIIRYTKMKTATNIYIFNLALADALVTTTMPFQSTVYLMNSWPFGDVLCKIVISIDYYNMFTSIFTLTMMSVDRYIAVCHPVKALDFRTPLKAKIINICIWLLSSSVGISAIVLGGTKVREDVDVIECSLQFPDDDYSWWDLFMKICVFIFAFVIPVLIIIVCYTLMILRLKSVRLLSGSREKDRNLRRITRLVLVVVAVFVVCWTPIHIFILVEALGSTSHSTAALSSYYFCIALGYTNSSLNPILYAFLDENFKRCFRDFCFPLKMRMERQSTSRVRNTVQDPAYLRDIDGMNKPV

| SMILES | pIC50 [1] | pIC50 [2] | analgesic effect in the rat formalin model [4] | efficacious doses versus doses producing toxicity in the rotarod test [5] | effect on mechanical hyperalgesia in the rat CCI model [6] | tolerance to the antihyperalgesic effect [6] | analgesic effect in the rat tail-flick test [8] | inhibition of α9α10 ACh-gated currents at the probe concentration [2] | also measured |
| --- | --- | --- | --- | --- | --- | --- | --- | --- | --- |
| c1ccc(-c2ccc[n+](CCCCCc3cc(CCCCC[n+]4cccc(-c5ccccc5)c4)cc(CCCCC[n+]4cccc(-c5ccccc5)c4)c3)c2)cc1 [Compound 10e] | 7.04 | 8.43 |  |  |  |  |  |  |  |
| C(#Cc1cc(C#CCCC[n+]2cccc(-c3ccccc3)c2)c(C#CCCC[n+]2cccc(-c3ccccc3)c2)cc1C#CCCC[n+]1cccc(-c2ccccc2)c1)CCC[n+]1cccc(-c2ccccc2)c1.[Br-].[Br-].[Br-].[Br-] [Compound 11e] | 8.06 | 9.25 | demonstrated an analgesic effect | efficacy was achieved at doses well below those that produced toxicity | reversed mechanical hyperalgesia in a dose-related manner | not observed | ineffective | nearly complete inhibition | affinity for 5HT3 receptors compared to α9α10 nAChRs [3]: several orders of magnitude lower affinity; interaction with GABAB receptors [7]: does not interact; affinity for κ-opioid receptors compared to α9α10 nAChRs [9]: several orders of magnitude lower affinity; interaction with GABAA receptors [10]: does not interact |
| Cc1cc(C)c[n+](CCCC#Cc2cc(C#CCCC[n+]3cc(C)cc(C)c3)c(C#CCCC[n+]3cc(C)cc(C)c3)cc2C#CCCC[n+]2cc(C)cc(C)c2)c1.[Br-].[Br-].[Br-].[Br-] [Compound 11b] |  |  |  |  |  |  |  | nearly complete inhibition |  |
| C(#Cc1cc(C#CCCC[n+]2cccc(-c3ccccc3)c2)cc(C#CCCC[n+]2cccc(-c3ccccc3)c2)c1)CCC[n+]1cccc(-c2ccccc2)c1 [Compound 9e] | 6.73 | 8.77 |  |  |  |  |  |  |  |
| c1ccc2c[n+](CCCCCc3cc(CCCCC[n+]4ccc5ccccc5c4)cc(CCCCC[n+]4ccc5ccccc5c4)c3)ccc2c1 [Compound 10d] | 6.77 | 8.32 |  |  |  |  |  |  |  |
| Cc1cc[n+](CC#Cc2ccc(-c3ccc(C#CC[n+]4ccc(C)c(C)c4)cc3)cc2)cc1C.[Br-].[Br-] [Compound 7a] |  |  | demonstrated an analgesic effect | efficacy was achieved at doses well below those that produced toxicity | reversed mechanical hyperalgesia in a dose-related manner | not observed | ineffective |  | alleviation of vincristin-induced neuropathic pain [11]: effective; selectivity for the α9α10 subtype vs. the α7 subtype [2]: 75 fold |
| [Br-].[Br-].[Br-].c1ccc2c(c1)ccc[n+]2CCCCCc1cc(CCCCC[n+]2cccc3ccccc32)cc(CCCCC[n+]2cccc3ccccc32)c1 [Compound 10c] | 5.82 | 8.38 | demonstrated an analgesic effect | efficacy was achieved at doses well below those that produced toxicity | reversed mechanical hyperalgesia in a dose-related manner | not observed | ineffective |  |  |
| Cc1cc[n+](CCCc2ccc(-c3ccc(CCC[n+]4ccc(C)c(C)c4)cc3)cc2)cc1C.[Br-].[Br-] [Compound 8a] | 5.22 | 6.17 |  |  |  |  |  |  | selectivity for the α9α10 subtype vs. the α7 subtype [2]: 9 fold |
| Cc1cc(C)c[n+](CCCCCc2cc(CCCCC[n+]3cc(C)cc(C)c3)c(CCCCC[n+]3cc(C)cc(C)c3)cc2CCCCC[n+]2cc(C)cc(C)c2)c1.[Br-].[Br-].[Br-].[Br-] [Compound 12b] |  |  |  |  |  |  |  | nearly complete inhibition |  |

Source: publication PMC3726002 (Bioorganic & medicinal chemistry letters, 2011)
